{"source": "patent US11490618B2", "about": "“Preservation compositions” (Conopco, Inc., priority 2018, dated 2022)", "key": {"[1]": {"test_system": "Pool 1 Gram negative non-fermenting bacteria: Pseudomonas aeruginosa, Pseudomonas putida & Burkholderia cepacia", "assay": "Liquid broth checkerboard assay (MIC, ΣFIC synergy), microorganism Pool 1", "assay_type": "cell-based", "conditions": "tryptic soy broth, 30° C., 24 hours, ΣFIC<1 synergistic", "source_text": "(§1) The differing behaviours of inhibitory antimicrobials in isolation and mixtures have been widely explored using the concept of the Fractional Concentration and Fractional Inhibitory Concentration (FIC). See for instance J R W Lambert and R Lambert, J. Appl. Microbiol 95, 734 (2003); T. Jadavji, C G Prober and R Cheung, Antimicrobial Agents and Chemotherapy 26, 91 (1984), and WO 2004/006876. These parameters can be defined as follows: FC(component a)=Concentration of component a tested in the mixture/MIC(component a tested as a single active) FIC(component a)=MIC(component a tested in the mixture)/MIC(component a tested as a single active)\n(§2) These relationships can be expressed mathematically by summing the fractional MIC values for all the components present in the mixture to give the “fractional inhibitory index”: ΣFIC=FIC(component 1)+FIC(component 2)\n(§3) ΣFIC≥1 corresponds to additive or antagonistic activity\n(§4) ΣFIC<1 corresponds to synergistic activity\n(§5) Liquid broth assays (MIC and checkerboard) were conducted to identify the minimum concentration(s) of individual and binary combinations of preservation chemicals. A modified methodology to ISO 20776-1:2006 was utilised for the screening as follows. Stock solutions of preservation chemicals and tryptic soy broth were inoculated with 1-5×10^6 microorganisms and incubated at 30° C. for 24 hours, after which optical densities at OD600 nm were measured. […] Preservation chemicals were screened at a concentration range of 0.0156-2%."}, "[2]": {"test_system": "Pool 2 Gram negative fermenting bacteria: Enterobacter gergoviae & Klebsiella species", "assay": "Liquid broth checkerboard assay (MIC, ΣFIC synergy), microorganism Pool 2", "assay_type": "cell-based", "conditions": "tryptic soy broth, 30° C., 24 hours, ΣFIC<1 synergistic", "source_text": "as §1, §2, §3, §4, §5"}, "[3]": {"conditions": "binary combination with Citric Acid"}, "[4]": {"conditions": "binary combination with Itaconic acid"}}}
{"smiles": "CC(C)=CCC/C(C)=C/CO", "note": "[Geraniol]", "values": [{"measurement": "ΣFIC synergy score", "setting": "[1]; [3]", "result": 0.75}, {"measurement": "ΣFIC synergy score", "setting": "[1]; [4]", "result": 0.31}, {"measurement": "ΣFIC synergy score", "setting": "[2]; [3]", "result": 1.06}, {"measurement": "ΣFIC synergy score", "setting": "[2]; [4]", "result": 0.5}]}
{"smiles": "C=C(C)[C@@H]1CC=C(CO)CC1", "note": "[Perillyl alcohol]", "values": [{"measurement": "ΣFIC synergy score", "setting": "[1]; [3]", "result": 0.38}, {"measurement": "ΣFIC synergy score", "setting": "[1]; [4]", "result": 0.38}, {"measurement": "ΣFIC synergy score", "setting": "[2]; [3]", "result": 0.5}, {"measurement": "ΣFIC synergy score", "setting": "[2]; [4]", "result": 0.38}]}
